Experimental data published in patent publication US10294229B2, “Heteroaryl substituted aminopyridine compounds” (BRISTOL-MYERS SQUIBB COMPANY, priority 2015, dated 2019).

Key:
[1] = tested on: Human whole blood stimulated with a TLR2 agonist (lipoteichoic acid), IL-6 levels; test: IRAK4 Whole Blood Assay; type: cell-based; details: Homo sapiens, lipoteichoic acid 10 μg/mL
Summary of the method: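 IL-6 was quantified by cytometric bead assay in supernatants of human blood (ACD-A) stimulated for 5 h with lipoteichoic acid at 10 μg/mL final. Compound exposure preceded stimulation for 60 min at 37 °C, 5% CO2.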

IRAK4 = IRAK4 (Homo sapiens (Human), UniProt Q9NWZ3); test: IRAK4 Inhibition Assay; type: biochemical; details: ATP 500 μM; IRAK4 0.6 nM
Chain of IRAK4 (Q9NWZ3 whole entry, species assumed): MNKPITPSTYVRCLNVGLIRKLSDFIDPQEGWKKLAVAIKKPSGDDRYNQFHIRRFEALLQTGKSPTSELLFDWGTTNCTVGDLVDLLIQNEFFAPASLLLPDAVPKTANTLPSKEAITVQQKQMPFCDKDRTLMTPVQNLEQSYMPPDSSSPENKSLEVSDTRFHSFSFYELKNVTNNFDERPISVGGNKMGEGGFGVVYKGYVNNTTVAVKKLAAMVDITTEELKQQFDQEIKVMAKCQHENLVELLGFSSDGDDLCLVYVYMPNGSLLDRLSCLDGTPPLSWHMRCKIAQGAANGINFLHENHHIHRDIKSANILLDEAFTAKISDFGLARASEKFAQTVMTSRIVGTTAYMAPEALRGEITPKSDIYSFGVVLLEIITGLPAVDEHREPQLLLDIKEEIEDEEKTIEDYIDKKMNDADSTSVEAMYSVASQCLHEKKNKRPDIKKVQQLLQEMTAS
Summary of the method: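 Mobility-shift kinase assay: 0.6 nM IRAK4, 500 μM ATP, 1.5 μM fluorescent peptide, 60 min, room temperature. Percent inhibition was normalised between enzyme-free and DMSO-only wells.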

[2] = Caco-2 Permeability Assay; type: in vitro ADME; details: human, Caco-2, test compound 3 μM
Experimental: Caco-2 Permeability Assay
Thirteen to 27 days prior to assay, Caco-2 cells were seeded onto collagen-coated polycarbonate filter membranes in 24-well transwell plates at a density of 1.45×10^5 cells/cm^2, approximately 4.8×10^4 cells per well. The cells were grown in a culture medium consisting of DMEM supplemented with 10% fetal bovine serum, 10 mM HEPES, 1% nonessential amino acids, 2 mM L-glutamine, 100 U/mL penicillin-G, and 100 μg/mL streptomycin. The culture medium was replaced every 3 days and the cells were maintained at 37° C. in a 95% relative humidity and 5% CO2 atmosphere. The cells were evaluated for tight junction formation just prior to assay. The test compound was solubilized to 10 mM in 100% DMSO and diluted to 3 μM in assay buffer. Permeability studies were initiated by adding 200 μL assay buffer plus/minus compound to the apical transwell compartment and 600 μL assay buffer plus/minus compound to the basolateral compartment of the 24-well transwell low-binding cluster plate. For apical-to-basolateral (A to B) permeability (absorptive direction), buffer containing compound was placed in the apical compartment (donor wells), while buffer alone was placed in the corresponding basolateral compartments (receiver wells). For basolateral-to-apical (B to A) permeability (secretive direction), buffer containing compound was placed in the basolateral compartment (donor wells), while buffer alone was placed in the corresponding apical compartments (receiver wells). Transwells were then incubated for 2 hours at 37° C. in a 95% relative humidity and 5% CO2 atmosphere with gentle agitation. Following incubation, 100 μL was removed from each apical and basolateral compartment and transferred to 96-well low binding plates that had been previously loaded with 100 μL/well of acetonitrile containing 250 nM propranolol, 250 nM diclofenac, and 500 nM tolbutamide as internal standards. The samples were subsequently analyzed by LC-MS/MS to determine concentrations of compound.

SMILES	EC50 [1]	IC50 (IRAK4)	Papp at 2 h, 3 µM [2]
CCCn1cc(-c2cnc(-n3ncc4cc(C#N)c(N)nc43)cc2NC(C)C)nn1 [Example 33, 6-amino-1-(4-(isopropylamino)-5-(1-propyl-1H-1,2,3-triazol-4-yl)pyridin-2-yl)-1H-pyrazolo[3,4-b]pyridine-5-carbonitrile]	3720 nM	3 nM	16.7 ×10⁻⁶ cm/s
CCCn1cc(-c2cnc(-n3ncc4cc(Cl)cnc43)cc2NC(C)C)nn1 [Example 218, 2-(5-chloro-1H-pyrazolo[3,4-b]pyridin-1-yl)-N-isopropyl-5-(1-propyl-1H-1,2,3-triazol-4-yl)pyridin-4-amine]	2090 nM	9 nM	12.5 ×10⁻⁶ cm/s
CC(C)Nc1cc(-n2ncc3cc(C#N)cnc32)ncc1-c1cn(CCO)nn1 [Example 11, 1-(5-(1-(2-hydroxyethyl)-1H-1,2,3-triazol-4-yl)-4-(isopropylamino)pyridin-2-yl)-1H-pyrazolo[3,4-b]pyridine-5-carbonitrile]	1950 nM	11 nM	2.8 ×10⁻⁶ cm/s
CC(C)Nc1cc(-n2ccc3cncnc32)ncc1-c1cn([C@@H]2CCNC[C@H]2O)nn1 [Example 4, (3R,4R)-4-(4-(4-(isopropylamino)-6-(7H-pyrrolo[2,3-d]pyrimidin-7-yl)pyridin-3-yl)-1H-1,2,3-triazol-1-yl)piperidin-3-ol]	2530 nM	3 nM	< 1.5 ×10⁻⁶ cm/s
CC(C)Nc1cc(-n2ncc3cc(C#N)cnc32)ncc1-n1cc(CCC(C)(C)O)nn1 [Example 327, 1-(5-(4-(3-hydroxy-3-methylbutyl)-1H-1,2,3-triazol-1-yl)-4-(isopropylamino)pyridin-2-yl)-1H-pyrazolo[3,4-b]pyridine-5-carbonitrile]	200 nM	3 nM	7.4 ×10⁻⁶ cm/s
CC(C)Nc1cc(-n2ncc3cc(C#N)cnc32)ncc1-c1cn([C@H]2CC[C@H](N)CC2)nn1 [Example 392, 1-(5-(1-((1r,4r)-4-aminocyclohexyl)-1H-1,2,3-triazol-4-yl)-4-(isopropylamino)pyridin-2-yl)-1H-pyrazolo[3,4-b]pyridine-5-carbonitrile]	440 nM	3 nM	< 1.5 ×10⁻⁶ cm/s
CC(=O)N1CC(c2cn(-c3cnc(-n4ncc5cc(C#N)cnc54)cc3NC(C)C)nn2)C1 [Example 339, 1-(5-(4-(1-acetylazetidin-3-yl)-1H-1,2,3-triazol-1-yl)-4-(isopropylamino)pyridin-2-yl)-1H-pyrazolo[3,4-b]pyridine-5-carbonitrile]	390 nM	5 nM	< 1.5 ×10⁻⁶ cm/s
CC(C)Nc1cc(-n2ncc3cc(C#N)cnc32)ncc1-c1cn(CCCCO)nn1 [Example 124, 1-(5-(1-(4-hydroxybutyl)-1H-1,2,3-triazol-4-yl)-4-(isopropylamino)pyridin-2-yl)-1H-pyrazolo[3,4-b]pyridine-5-carbonitrile]	290 nM	2 nM	2.9 ×10⁻⁶ cm/s
CCOC(=O)N1CC[C@H](n2cc(-c3cnc(-n4ncc5cc(C#N)cnc54)cc3NC(C)C)nn2)[C@H](O)C1 [Example 180, (3R,4S)-ethyl 4-(4-(6-(5-cyano-1H-pyrazolo[3,4-b]pyridin-1-yl)-4-(isopropylamino)pyridin-3-yl)-1H-1,2,3-triazol-1-yl)-3-hydroxypiperidine-1-carboxylate]	2140 nM	11 nM	3.2 ×10⁻⁶ cm/s
CC(C)Nc1cc(-n2cnc3cc(C#N)cnc32)ncc1-c1cn(C2CN(C)C2)nn1 [Example 152, 3-(4-(isopropylamino)-5-(1-(1-methylazetidin-3-yl)-1H-1,2,3-triazol-4-yl)pyridin-2-yl)-3H-imidazo[4,5-b]pyridine-6-carbonitrile]	750 nM	4 nM	15.8 ×10⁻⁶ cm/s
CC(C)Nc1cc(-n2ncc3cc(C#N)cnc32)ncc1-c1cn(C2CCN(C)C2=O)nn1 (stereo not drawn) [Example 21, 1-(4-(isopropylamino)-5-(1-(1-methyl-2-oxopyrrolidin-3-yl)-1H-1,2,3-triazol-4-yl)pyridin-2-yl)-1H-pyrazolo[3,4-b]pyridine-5-carbonitrile]	320 nM	4 nM	4.2 ×10⁻⁶ cm/s
CC(C)Nc1cc(-n2ncc3cnc(N)nc32)ncc1-n1cc(CCC(C)(C)O)nn1 [Example 350, 4-(1-(6-(6-amino-1H-pyrazolo[3,4-d]pyrimidin-1-yl)-4-(isopropylamino)pyridin-3-yl)-1H-1,2,3-triazol-4-yl)-2-methylbutan-2-ol]	280 nM	6 nM	6.4 ×10⁻⁶ cm/s
CC(C)Nc1cc(-n2ncc3cc(C#N)c(N)nc32)ncc1-c1cn(CCCO)nn1 [Example 29, 6-amino-1-(5-(1-(3-hydroxypropyl)-1H-1,2,3-triazol-4-yl)-4-(isopropylamino)pyridin-2-yl)-1H-pyrazolo[3,4-b]pyridine-5-carbonitrile]	380 nM	4 nM	< 1.5 ×10⁻⁶ cm/s
CC(=O)N1CC(c2cc(-c3cnc(-n4ncc5cc(C#N)cnc54)cc3NC(C)C)on2)C1 [Example 398, 1-(5-(3-(1-acetylazetidin-3-yl)isoxazol-5-yl)-4-(isopropylamino)pyridin-2-yl)-1H-pyrazolo[3,4-b]pyridine-5-carbonitrile]	300 nM	4 nM	6.9 ×10⁻⁶ cm/s
CC(C)Nc1cc(-n2ncc3cc(C#N)cnc32)ncc1-c1cn([C@@H]2CCN(S(C)(=O)=O)C[C@@H]2O)nn1 [Example 188, 1-(5-(1-((3S,4R)-3-hydroxy-1-(methylsulfonyl)piperidin-4-yl)-1H-1,2,3-triazol-4-yl)-4-(isopropylamino)pyridin-2-yl)-1H-pyrazolo[3,4-b]pyridine-5-carbonitrile]	110 nM	18 nM	< 1.5 ×10⁻⁶ cm/s
CC(C)Nc1cc(-n2ncc3cc(C#N)cnc32)ncc1-n1cc(CCC(C)(C)OC(=O)C2CC2)nn1 [Example 382, 4-(1-(6-(5-cyano-1H-pyrazolo[3,4-b]pyridin-1-yl)-4-(isopropylamino)pyridin-3-yl)-1H-1,2,3-triazol-4-yl)-2-methylbutan-2-yl cyclopropanecarboxylate]	460 nM	2 nM	24.8 ×10⁻⁶ cm/s
CCCn1cc(-c2cnc(-n3ncc4cc(C#N)cnc43)cc2NC2CC2)nn1 [Example 34, 1-(4-(cyclopropylamino)-5-(1-propyl-1H-1,2,3-triazol-4-yl)pyridin-2-yl)-1H-pyrazolo[3,4-b]pyridine-5-carbonitrile]	660 nM	4 nM	48.1 ×10⁻⁶ cm/s
CC(C)Nc1cc(-n2ncc3cc(C#N)cnc32)ncc1-c1cn(C[C@H](O)c2ccccc2)nn1 [Example 85, (R)-1-(5-(1-(2-hydroxy-2-phenylethyl)-1H-1,2,3-triazol-4-yl)-4-(isopropylamino)pyridin-2-yl)-1H-pyrazolo[3,4-b]pyridine-5-carbonitrile]	310 nM	5 nM	6.9 ×10⁻⁶ cm/s
CCN1CCOC[C@H]1c1cc(-c2cnc(-n3ncc4cc(C#N)cnc43)cc2NC(C)C)no1 [Example 431, (S)-1-(5-(5-(4-ethylmorpholin-3-yl)isoxazol-3-yl)-4-(isopropylamino)pyridin-2-yl)-1H-pyrazolo[3,4-b]pyridine-5-carbonitrile]	440 nM	2 nM	21.8 ×10⁻⁶ cm/s
CC(C)Nc1cc(-n2ncc3cc(C#N)cnc32)ncc1-c1cc([C@H]2C[C@@H](O)CCN2)no1 [Example 425, 1-(5-(3-((2R,4S)-4-hydroxypiperidin-2-yl)isoxazol-5-yl)-4-(isopropylamino)pyridin-2-yl)-1H-pyrazolo[3,4-b]pyridine-5-carbonitrile]	140 nM	9 nM	< 1.5 ×10⁻⁶ cm/s
CCCn1cc(-c2cnc(-n3ncc4cc(C#N)cnc43)cc2Nc2cnn(CC(F)F)c2)nn1 [Example 60, 1-(4-((1-(2,2-difluoroethyl)-1H-pyrazol-4-yl)amino)-5-(1-propyl-1H-1,2,3-triazol-4-yl)pyridin-2-yl)-1H-pyrazolo[3,4-b]pyridine-5-carbonitrile]	250 nM	2 nM	11.9 ×10⁻⁶ cm/s
CC(C)Nc1cc(-n2ncc3cc(C#N)cnc32)ncc1-c1cn(C(C)C)nn1 [Example 213, 1-(5-(1-isopropyl-1H-1,2,3-triazol-4-yl)-4-(isopropylamino)pyridin-2-yl)-1H-pyrazolo[3,4-b]pyridine-5-carbonitrile]	1750 nM	5 nM	19.3 ×10⁻⁶ cm/s
